Structures can show the parent of a compound that is named as a salt. Where two headings read alike, the source gives them in different places. Blank lines part the entries; values can stand above or below the compound they belong to.
Molecular target: T1, protein farnesyltransferase (Rattus norvegicus, UniProt Q02293+Q04631)
T1 construct: Rat brain protein farnesyltransferase activity is measured; from tissue; host or cells: rat brain; purified according to Reiss et al., Cell 62:81-88 (1990), steps one through three
Experiment: in vitro inhibition of protein farnesyltransferase (scintillation proximity assay, biotin-K Ras B fragment)
Type: biochemical
Details: for inhibition at 1 µM / inhibition at 0.01 µM / inhibition at 0.1 µM: read-out: % inhibition of farnesyltransferase
How it was run: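 Scintillation proximity read-out of farnesylation, using a biotinylated K Ras B fragment (0.1 mM final) in place of biotin-lamin. Enzyme purified from rat brain; results given as % inhibition.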

SMILES: CSCC[C@H](NC(=O)c1ccc(COC2CCC(NC(=O)OC(C)(C)C)CC2)cc1-c1ccccc1C)C(=O)[O-].[Li+] (stereo partly drawn) [Example 817]
% inhibition of farnesyltransferase (at 1 × 10^-7 M): 60%

SMILES: CSCC[C@H](NC(=O)c1ccc(COCc2ccc(-c3ccc(C(C)C)cc3)o2)cc1-c1ccccc1C)C(=O)[O-].[Li+] [Example 820]
% inhibition of farnesyltransferase (at 1 × 10^-8 M): 66%

SMILES: CSCC[C@H](NC(=O)c1ccc(CN2CCC[C@H]2COCc2ccccc2)cc1-c1ccccc1C)C(=O)O [Example 824]
% inhibition of farnesyltransferase (at 1 × 10^-6 M): 90%

SMILES: CCCCC(OCc1ccc(C(=O)N[C@@H](CCSC)C(=O)[O-])c(-c2ccccc2C)c1)c1ccco1.[Li+] (stereo partly drawn) [Example 825]
% inhibition of farnesyltransferase (at 1 × 10^-7 M): 79%

SMILES: CCCCC(OCc1ccc(C(=O)N[C@@H](CCSC)C(=O)[O-])c(-c2ccccc2C)c1)c1ccc(-c2ccc(Cl)cc2)o1.[Li+] (stereo partly drawn) [Example 826]
% inhibition of farnesyltransferase (at 1 × 10^-8 M): 92%

SMILES: CSCC[C@H](NC(=O)c1ccc(COCc2occc2-c2ccc(Cl)cc2)cc1-c1ccccc1C)C(=O)[O-].[Li+] [Example 827]
% inhibition of farnesyltransferase (at 1 × 10^-8 M): 77%

SMILES: CSCC[C@H](NC(=O)c1ccc(COC(Cc2ccccc2)c2cncs2)cc1-c1ccccc1C)C(=O)[O-].[Li+] (stereo partly drawn) [Example 828]
% inhibition of farnesyltransferase (at 1 × 10^-8 M): 87%

SMILES: CSCC[C@H](NC(=O)c1ccc(COCc2oc(-c3ccc(Cl)cc3)c(Cl)c2Cl)cc1-c1ccccc1C)C(=O)[O-].[Li+] [Example 829]
% inhibition of farnesyltransferase (at 1 × 10^-8 M): 92%

SMILES: CSCC[C@H](NC(=O)c1ccc(CN(Cc2ccco2)C(C)C)cc1-c1ccccc1C)C(=O)O [Example 831, N-[4-N-(furan-2-ylmethyl)-N-isopropylaminomethyl-2-(2-methylphenyl)benzoyl]methionine lithium salt]
inhibition at 1 µM (at 1 × 10^-6 M): 92%

SMILES: CSCC[C@H](NC(=O)c1ccc(CN(Cc2ccccc2)c2cncnc2)cc1-c1ccccc1C)C(=O)O [Example 836, N-[4-N-benzyl-N-pyrimidin-5-ylaminomethyl-2-(2-methylphenyl)benzoyl]methionine lithium salt]
inhibition at 0.01 µM (at 1 × 10^-8 M): 95%

SMILES: CSCC[C@H](NC(=O)c1ccc(CN(Cc2ccc3c(c2)OCO3)c2cncnc2)cc1-c1ccccc1C)C(=O)O [Example 837, lithium salt]
inhibition at 0.01 µM (at 1 × 10^-8 M): 91%

SMILES: COc1ccccc1N(Cc1ccccc1)Cc1ccc(C(=O)N[C@@H](CCSC)C(=O)O)c(-c2ccccc2C)c1 [Example 839, N-[4-(N-benzyl-N-(2-methoxyphenyl)aniinomethyl)-2-(2-methylphenyl)benzoyl]methionine lithium salt]
inhibition at 0.1 µM (at 1 × 10^-7 M): 63%

SMILES: COc1ccc(N(Cc2ccccc2)Cc2ccc(C(=O)N[C@@H](CCSC)C(=O)O)c(-c3ccccc3C)c2)cc1 [Example 840, N-[4-(N-benzyl-N-(4-methoxyphenyl)aaminomethyl)-2-(2-methylphenyl)benzoyl]methionine lithium salt]
inhibition at 0.01 µM (at 1 × 10^-8 M): 73%

SMILES: CSCC[C@H](NC(=O)c1ccc(CN(Cc2ccccc2)c2cccc([N+](=O)[O-])c2)cc1-c1ccccc1C)C(=O)O [Example 842, N-[4-(N-benzyl-N-(3-nitrophenyl)aminomethyl)-2-(2-methylphenyl)benzoyl]methionine lithium salt]
inhibition at 0.01 µM: 88%

SMILES: CSCC[C@H](NC(=O)c1ccc(CN(Cc2ccccc2)c2ccc([N+](=O)[O-])cc2)cc1-c1ccccc1C)C(=O)O [Example 843, N-[4-(N-benzyl-N-(4-nitrophenyl)aninomethyl)-2-(2-methylphenyl)benzoyl]methionine lithium salt]
inhibition at 0.01 µM (at 1 × 10^-8 M): 96%

SMILES: CSCC[C@H](NC(=O)c1ccc(CN(Cc2ccccc2)c2ccccc2Cl)cc1-c1ccccc1C)C(=O)O [Example 846, N-[4-N-(N-benzyl-N-(2-chlorophenyl)aminomethyl)-2-(2-methylphenyl)benzoyl]methionine lithium salt]
inhibition at 1 µM (at 1 × 10^-6 M): 85%

SMILES: CSCC[C@H](NC(=O)c1ccc(CN(Cc2ccccc2)c2ccccc2[N+](=O)[O-])cc1-c1ccccc1C)C(=O)O [Example 849, N-[4-(N-benzyl-N-(2-nitrophenyl)aminomethyl)-2-(2-methylphenyl)benzoyl]methionine lithium salt]
inhibition at 0.1 µM: 66%

Now from value to compound:

% inhibition of farnesyltransferase (at 1 × 10^-7 M): 78%
SMILES: CSCC[C@H](NC(=O)c1ccc(COCc2ccc(-c3ccc(Cl)cc3)o2)cc1-c1ccccc1C)C(=O)NS(C)(=O)=O [Example 818]

% inhibition of farnesyltransferase (at 1 × 10^-8 M): 76%
SMILES: CSCC[C@H](NC(=O)c1ccc(COCc2ccc(-c3ccc(Cl)cc3)o2)cc1-c1ccccc1C)C(=O)NS(=O)(=O)c1ccccc1 [Example 819]

% inhibition of farnesyltransferase (at 1 × 10^-8 M): 75%
SMILES: CSCC[C@H](NC(=O)c1ccc(COCc2ccc(-c3ccc(N(C)C)cc3)o2)cc1-c1ccccc1C)C(=O)O [Example 821]

% inhibition of farnesyltransferase (at 1 × 10^-7 M): 93%
SMILES: CSCC[C@H](NC(=O)c1ccc(COCC2CCC(c3ccc(Cl)cc3)O2)cc1-c1ccccc1C)C(=O)O (stereo partly drawn) [Example 822]

inhibition at 1 µM (at 1 × 10^-6 M): 80%
SMILES: CSCC[C@H](NC(=O)c1ccc(CN(Cc2ccoc2)C(C)C)cc1-c1ccccc1C)C(=O)O [Example 832, N-[4-N-(furan-3-ylmethyl)-N-isopropylainomethyl-2-(2-methylphenyl)benzoyl]methionine lithium salt]

inhibition at 0.01 µM (at 1 × 10^-8 M): 78%
SMILES: COc1cccc(N(Cc2ccccc2)Cc2ccc(C(=O)N[C@@H](CCSC)C(=O)O)c(-c3ccccc3C)c2)c1 [Example 833, N-[4-N-benzyl-N-3-methoxyphenylaminomethyl-2-(2-methylphenyl)benzoyl]methionine lithium salt]

inhibition at 1 µM (at 1 × 10^-6 M): 55%
SMILES: CSCC[C@H](NC(=O)c1ccc(CN(Cc2ccccc2)Cc2ccccc2)cc1-c1ccccc1)C(=O)O [Example 834, N-[4-N,N-dibenzylaminomethyl-2-phenylbenzoyl]methionine lithium salt]

inhibition at 1 µM (at 1 × 10^-6 M): 96%
SMILES: CSCC[C@H](NC(=O)c1ccc(CN(CCc2ccccc2)C(C)C)cc1-c1ccccc1C)C(=O)O [Example 835, N-[14-N-(2-phenylethyl)-N-isoprolpylaminomethyl-2-(2-methylphenyl)benzoyl]methionine lithium salt]

inhibition at 0.01 µM (at 1 × 10^-8 M): 92%
SMILES: CSCC[C@H](NC(=O)c1ccc(CN(Cc2ccc3c(c2)OCO3)c2cnccn2)cc1-c1ccccc1C)C(=O)O [Example 838, N-[4-N-(1,3-benzodiox-5-yl)-N-pyridizin-2-ylaminomethyl-2-(2-methylphenyl)benzoyl]methionine lithium salt]

inhibition at 1 µM (at 1 × 10^-6 M): 92%
SMILES: CSCC[C@H](NC(=O)c1ccc(CN(Cc2ccccc2)c2ccccc2C(C)=O)cc1-c1ccccc1C)C(=O)O [Example 844, N-[4-N-(N-benzyl-N-(2-acetylphenyl)aminomethyl)-2-(2-methylphenyl)benzoyl]methionine lithium salt]

inhibition at 0.01 µM (at 1 × 10^-8 M): 85%
SMILES: CSCC[C@H](NC(=O)c1ccc(CN(Cc2ccccc2)c2cccc(C(C)=O)c2)cc1-c1ccccc1C)C(=O)O [Example 845, N-[4-N-(N-benzyl-N-(3-acetylphenyl)aninomethyl)-2-(2-methylphenyl)benzoyl]methionine lithium salt]

inhibition at 0.01 µM (at 1 × 10^-8 M): 85%
SMILES: CSCC[C@H](NC(=O)c1ccc(CN(Cc2ccccc2)c2cccc(Cl)c2)cc1-c1ccccc1C)C(=O)O [Example 847, N-[4-N-(N-benzyl-N(3-chlorophenyl)aminomethyl)-2-(2-methylphenyl)benzoyl]methionine lithium salt]

inhibition at 0.01 µM (at 1 × 10^-8 M): 87%
SMILES: CSCC[C@H](NC(=O)c1ccc(CN(Cc2ccccc2)c2ccc(Cl)cc2)cc1-c1ccccc1C)C(=O)O [Example 848, N-[4-N-(N-benzyl-N-(4-chlorophenyl)aminomethyl)-2-(2-methylphenyl)benzoyl]methionine lithium salt]

Source: patent US6310095A, “Inhibitors of protein isoprenyl transferases” (University of Pittsburgh, priority 1998, dated 2001)
